Assay results from patent EP1067939B1, “USE OF STEROIDAL ALKALOID DERIVATIVES AS INHIBITORS OF HEDGEHOG PROTEIN SIGNALING PATHWAYS” (The Johns Hopkins University, priority 1998, dated 1999).
Like-named read-outs stand apart in the source and are kept apart here.

Legend:
[1] = tested on: primary human lymphoblasts; test: Cholesterol Biosynthesis Assay (sterol profiles of cultured cells); type: cell-based; settings: five days
[2] = tested on: rat hepatoma cells; test: Cholesterol Esterification Assay (esterification of plasma membrane cholesterol); type: cell-based
Excerpt: Table 1. […] Table 1. Effects of synthetic and plant-derived compounds on cholesterol homeostasis. […]

[3] = tested on: endogenous Shh signaling; test: Midline neural plate/notochord explant assay of endogenous Shh signaling; type: cell-based, chick; settings: midline explants, two days of culture
[4] = target: T1, Shh (Mus musculus, UniProt Q62226); test: Shh autoprocessing in stably transfected HK293 cells (immunoblot); type: cell-based; settings: added during the 24-hour induction period; doses up to 5-fold higher than those required to completely inhibit Shh signaling
T1 construct: expressed in transfected cells; host or cells: HK293 cells, Ecdysone-Inducible Mammalian Expression System (Invitrogen)
Excerpt: To examine potential effects of these compounds on Shh processing we utilized HK293 cells cultured in lipid-depleted serum and carrying a stable integrated construct for expression of Shh under ecdysone-inducible control (47). Shh protein expression in these cells can be induced by addition of muristerone A, an ecdysone analog.
• 1. M. Hammerschmidt, A. Brook, A. P. McMahon, Trends Genet, 13, 14-21 (1997). • 2. C. Chiang, et al., Nature, 383,407-413 (1996). • 3. Y. Tanabe, T. M. Jessell, Science 274, 1115-1123 (1996). • 4. T. P. Yamaguchi, Curr. Opin. Genet. Dev. 7, 513-518 (1997). • 5. N. Shubin, C. Tabin, S. Carroll, Nature 388, 639-648 (1997). • 6. A. E. Oro, et al., Science 276, 817-821 (1997). • 7. M. M. Cohen, K. K. Sulik, J. Craniofac. Genet. Deve. Biol. 12, 196-244 (1992). • 8. E. Belloni, et al., Nature Genet. 14, 353-356 (1996). • 9. E. Roessler, et al., Nature Genet. 14, 357-360 (1996). • 10. J. A. Porter, et al., Nature 374, 363-366 (1995). • 11. J. A. Porter, K. E. Young, P. A. Beacy, Science 274, 255-259 (1996b). • 12. J. J. Lee, et al., Science 266, 1528-1537 (1994). • 13. J. A. Porter, et al., Cell 86, 21-34 (1996a). • 14. C. Roux, Arch. Franc. Pediatr. 21, 451-464 (1964). • 15. C. Roux, C. R. Soc. Biol. 160, 1353-1357 (1966). • 16. D. B. Dehart, L. Lanoue, G. S. Tinit, K. K. Sulik, Am J. Med. Genet. 68, 328-337 (1997). • 17. M. Kraml, J. F. Bagli, D. Dvornik, Biochem. and Biophysical Res. Com. 15, 455-457 (1964). • 18. J. Avigan, D. Steinberg, H. E. Vroman, M. J. Thompson, E. Mosettig, J. Biol. Chem 235, 3123-3126 (1960). • 19. R. B. Clayton, A. N. Nelson, I. D. Frantz Jr., J. Lipid Res. 4, 166-178 (1963). • 20. J. Aufenanger, J. Pill, K. Stegmeier, F. H. Schmidt, Horm. Metabol. Res. 17, 612-613 (1986). • 21. […] G. Popjak, A. Meenean, E. J. Parish, W. D. Nes, J. Biol. Chem 264,6230-6238 (1989). • 23. H. Yoshikawa, Brain Deve. 13, 115-120 (1991). • 24. R. I. Kelley, et al., Am. J. Of Med. Gen. 66, 478-484 (1996). • 25. G. S. Tint, et al., New England Journal of Medicine 330, 107-113 (1994). • 26. T.E. Willnow, et al., Proc. Natl. Acad. Sci USA 93, 8460-8464 (1996). • 27. S. Stefansson, D. A. Chappell, K. M. Argraves, D. K. Strickland, W. S. Argraves, J. Biol. Chem. 270, 19417-19421 (1995). • 28. W. Binns, L. F. James, J. L. Shupe, G. Everett, Am. J. Vet. Res. 24, 1164-1174 (1963). • 29. R. F. Keeler, W. Binns, Teratology 1, 5-10 (1968). • 30. P. A. Beachy, et al., CSH Symp. Quant. Biol. 62, in press (1997). • 31. E. D. Carstea, et al., Science 277, 228-231 (1997). • 32. S. K. Loftus, et al., Science 277, 232-235 […]. • 33. L. V. Goodrich, L. Milenkovic, K. M. Higgins, M. P. Scott, Science 277, 1109-1113 (1997). • 34. H. Kumagai, K. T. Chun, R. D. Simoni, J. Biol. Chem. 270, 19107-19113 (1995). • 35. G. Gil, J. R. Faust, D. J. Chin, J. L. Goldstien, M. S. Brown, Cell 41, 249-258 (1985). • 36. X. Hua, A. Nohturfft, J. L. Goldstein, M. S. Brown, Cell 87, 415-426 (1996). • 37. M. S. Brown, J. L. Goldstein, Cell 89, 331-340 (1997). • 38. M. M. Bryden, C. Perry, R. F. Keeler, Teratology 8, 18-28 (1973). • 39. M. L. Omnell, F. R. P. Sim, R. F. Keeler, L. C. Harne, K. W. Brown, Teratology 42, 105-119 (1990). • 40. Fertile chick eggs (white leghorn) were placed in a humidified incubator at 37.5° C in a rotating tray for 14 hours. […] The window was taped and the eggs incubated for an additional 4 days. The embryos were dissected in phosphate buffered saline (PBS, pH 7.2).

[5] = tested on: Shh-N; test: Intermediate neural plate explant response to exogenous Shh-N protein; type: cell-based, chick; settings: for concentration that inhibits the repression of Pax7 expression by 2 nM Shh-N: 20 hours; for doses at which HNF3β and Isl-1 induction are completely blocked / intermediate levels at which induction of HNF3β is blocked while induction of Isl-1 is maintained or expanded: 25 nM Shh-N
[6] = read-out: Percent Inhibition (incorporation of label into cholesteryl ester*) ^3H-Cholesterol
[7] = read-out: Percent Inhibition (incorporation of label into cholesteryl ester*) ^14C-Oleic Acid

T1 sequence (Q62226 25-437): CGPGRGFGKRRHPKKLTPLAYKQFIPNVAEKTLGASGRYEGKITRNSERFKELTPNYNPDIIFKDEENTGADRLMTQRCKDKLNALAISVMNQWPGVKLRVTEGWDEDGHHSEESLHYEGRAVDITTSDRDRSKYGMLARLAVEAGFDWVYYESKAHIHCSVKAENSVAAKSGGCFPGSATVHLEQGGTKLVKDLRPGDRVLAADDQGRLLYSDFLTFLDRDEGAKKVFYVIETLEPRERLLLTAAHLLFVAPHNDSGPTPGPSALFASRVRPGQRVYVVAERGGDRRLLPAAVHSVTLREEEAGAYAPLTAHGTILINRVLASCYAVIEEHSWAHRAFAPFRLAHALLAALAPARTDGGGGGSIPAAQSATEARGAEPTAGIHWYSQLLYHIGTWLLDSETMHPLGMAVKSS

SMILES	Percent Sterols: Cholesterol ([1]; 0.25 µM) [%]	Percent Sterols: b. 7 Dehydrodesmosterol ([1]; 0.25 µM) [%]	Percent Sterols: c. Cholesta-7,24-dien-3ß-ol ([1]; 0.25 µM) [%]	Percent Sterols: e. Cholesta-8(14)-en-3ß-ol ([1]; 0.25 µM) [%]	Total Sterols (µg/mg protein) ([1]; 0.25 µM)	Percent Sterols: 2. C28 Sterols ([1]; 0.5 µM) [%]	Percent Sterols: 3. C29 Sterols ([1]; 0.5 µM) [%]	Percent Sterols: Cholesterol ([1]; 0.5 µM) [%]	Percent Sterols: b. 7 Dehydrodesmosterol ([1]; 0.5 µM) [%]	Percent Sterols: c. Cholesta-7,24-dien-3ß-ol ([1]; 0.5 µM) [%]	Percent Sterols: e. Cholesta-8(14)-en-3ß-ol ([1]; 0.5 µM) [%]	Total Sterols (µg/mg protein) ([1]; 0.5 µM)	Percent Sterols: 2. C28 Sterols ([1]; 1.0 µM) [%]	Percent Sterols: 3. C29 Sterols ([1]; 1.0 µM) [%]	Percent Sterols: Cholesterol ([1]; 1.0 µM) [%]	Percent Sterols: b. 7 Dehydrodesmosterol ([1]; 1.0 µM) [%]	Percent Sterols: c. Cholesta-7,24-dien-3ß-ol ([1]; 1.0 µM) [%]	Percent Sterols: e. Cholesta-8(14)-en-3ß-ol ([1]; 1.0 µM) [%]	Total Sterols (µg/mg protein) ([1]; 1.0 µM)	inhibition at 2.5 µM [2, 6] [%]	further results
CCN(CC)CCOc1ccc(C(O)(Cc2ccc(Cl)cc2)c2ccc(C)cc2)cc1 (stereo not drawn) [Triparanol, triparanol]	56	6.0	3.1	9.1	4.1	2.6	8.1	45	4.1	2.4	8.7	5.1	1.5	5.5	51	2.9	2.6	7.3	3.1	49	Percent Sterols: 2. C28 Sterols ([1]; 0.25 µM): 4.4%; Percent Sterols: 3. C29 Sterols ([1]; 0.25 µM): 7.8%; Percent Sterols: a. Desmosterol ([1]; 0.25 µM): 9.1%; Percent Sterols: d. Zymosterol ([1]; 0.25 µM): 9.3%; Percent Sterols: a. Desmosterol ([1]; 0.5 µM): 8.7%; Percent Sterols: d. Zymosterol ([1]; 0.5 µM): 27%; Percent Sterols: a. Desmosterol ([1]; 1.0 µM): 6.7%; Percent Sterols: d. Zymosterol ([1]; 1.0 µM): 23%; inhibition at 2.5 µM [2, 7]: 54%; inhibition at 5 µM [2, 6]: 57%; inhibition at 5 µM [2, 7]: 65%; inhibition at 10 µM [2, 6]: 79%; inhibition at 10 µM [2, 7]: 81%; Higher doses that fully inhibit HNF3β and Isl-1 induction [3]: 1.0 µM; Intermediate doses that block induction of HNF3β while permitting induction of Isl-1 [3]: 0.25 µM; Shh-Np production and accumulation of unprocessed precursor [4]: did not diminish Shh-Np production nor induce accumulation of unprocessed precursor; concentration that inhibits the repression of Pax7 expression by 2 nM Shh-N [5]: 0.25 µM; doses at which HNF3β and Isl-1 induction are completely blocked [5]: 0.5 µM; intermediate levels at which induction of HNF3β is blocked while induction of Isl-1 is maintained or expanded [5]: 0.25 µM
Clc1ccccc1CNC[C@H]1CC[C@H](CNCc2ccccc2Cl)CC1 [AY9944, AY 9944]	30	3.5	1.8	9.7	7.6	1.1	3.3	33	3.0	1.9	14	8.3	2.6	4.6	34	1.9	1.6	20	8.3	39	Percent Sterols: f. 7 Dehydrocholesterol ([1]; 0.25 µM): 50%; Percent Sterols: g. Lathosterol ([1]; 0.25 µM): 6.2%; Percent Sterols: f. 7 Dehydrocholesterol ([1]; 0.5 µM): 36%; Percent Sterols: g. Lathosterol ([1]; 0.5 µM): 7.3%; Percent Sterols: f. 7 Dehydrocholesterol ([1]; 1.0 µM): 16%; Percent Sterols: g. Lathosterol ([1]; 1.0 µM): 7.9%; Percent Sterols: h. C27 Sterol 1 (mw 384) ([1]; 1.0 µM): 5.3%; Percent Sterols: i. C27 Sterol 2 (mw 382) ([1]; 1.0 µM): 6.0%; inhibition at 2.5 µM [2, 7]: 20%; inhibition at 5 µM [2, 6]: 56%; inhibition at 5 µM [2, 7]: 35%; inhibition at 10 µM [2, 6]: 68%; inhibition at 10 µM [2, 7]: 51%; Higher doses that fully inhibit HNF3β and Isl-1 induction [3]: 4.0 µM; Intermediate doses that block induction of HNF3β while permitting induction of Isl-1 [3]: 0.5 µM; Shh-Np production and accumulation of unprocessed precursor [4]: did not diminish Shh-Np production nor induce accumulation of unprocessed precursor; concentration that inhibits the repression of Pax7 expression by 2 nM Shh-N [5]: 0.5 µM; doses at which HNF3β and Isl-1 induction are completely blocked [5]: 2.0 µM; intermediate levels at which induction of HNF3β is blocked while induction of Isl-1 is maintained or expanded [5]: 1.0 µM
